Reference: US20260242391A1 (priority 2023, published 2026)

Columns and labels:
HL-60 = HL-60 differentiation potency; format: cell-based; details: Homo sapiens
in vitro = details: human

| EC50 (HL-60) [nM] | IC50 (in vitro) [nM] | Compound |
| --- | --- | --- |
| 217 | > 20000 | C[C@H]1[C@@H](Oc2ccc(C(=O)O)c(F)c2)O[C@H]2O[C@@]3(C)CC[C@H]4[C@H](C)CC[C@@H]1[C@@]24OO3 [Compound 25, 2-fluoro-4-(((3R,5aS,6R,8aS, 9R,10S,12S, 12aR)-3,6,9-trimethyldeca-hydro-12H-3,12-epoxy[1,2]dioxepino[4,3-i]isochromen-10-yl)oxy)benzoic acid] |
| 225 | > 20000 | C[C@H]1[C@@H](Oc2ccc(CC(=O)O)c(F)c2)O[C@@H]2O[C@@]3(C)CC[C@H]4[C@H](C)CC[C@@H]1[C@@]24OO3 [Compound 26, 2-(2-fluoro-4-(((3R,5aS,6R, 8aS,9R,10S,12R, 12aR)-3,6,9-trimethyldeca-hydro-12H-3,12-epoxy[1,2]dioxepino[4,3-i]isochromen-10-yl)oxy)phenyl) acetic acid] |
| 239 | > 20000 | C[C@H]1[C@@H](Oc2ccc(F)c(CC(=O)O)c2)O[C@@H]2O[C@@]3(C)CC[C@H]4[C@H](C)CC[C@@H]1[C@@]24OO3 [Compound 27, 2-(2-fluoro-5-(((3R,5aS,6R, 8aS,9R,10S,12R, 12aR)-3,6,9-trimethyldeca-hydro-12H-3,12-epoxy[1,2]dioxepino[4,3-i]isochromen-10-yl)oxy)phenyl) acetic acid] |
| 256 | 446 | C[C@H]1[C@H](NCCS(=O)(=O)C(F)(F)F)O[C@@H]2O[C@@]3(C)CC[C@H]4[C@H](C)CC[C@@H]1[C@@]24OO3 [Compound 28, (3R,5aS,6R,8aS, 9R,10R,12R, 12aR)-3,6,9-trimethyl-N-(2-((trifluoromethyl)sulfonyl)ethyl) decahydro-12H-3,12-epoxy[1,2] dioxepino[4,3-i] isochromen-10-amine] |
| 283 | > 20000 | C[C@H]1[C@@H](OCc2cc(F)c(C(=O)O)c(F)c2)O[C@@H]2O[C@@]3(C)CC[C@H]4[C@H](C)CC[C@@H]1[C@@]24OO3 [Compound 29, 2,6-difluoro-4-((((3R,5aS,6R, 8aS,9R,10S,12R, 12aR)-3,6,9-trimethyldeca-hydro-12H-3,12-epoxy[1,2]dioxepino[4,3-i]isochromen-10-yl)oxy)methyl) benzoic acid] |
| 300 | 3520 | C[C@H]1[C@@H](OCc2ccc(C(N)=O)cc2)O[C@@H]2O[C@@]3(C)CC[C@H]4[C@H](C)CC[C@@H]1[C@@]24OO3 [Compound 30, 4-((((3R,5aS, 6R,8aS,9R,10S, 12R,12aR)-3,6,9-trimethyldeca-hydro-12H-3,12-epoxy[1,2]dioxepino[4,3-i]isochromen-10-yl)oxy)methyl) benzamide] |
| 324 | > 20000 | C[C@H]1[C@@H](OCc2ccc(C(=O)O)c(F)c2F)O[C@@H]2O[C@@]3(C)CC[C@H]4[C@H](C)CC[C@@H]1[C@@]24OO3 [Compound 31, 2,3-difluoro-4-((((3R,5aS,6R, 8aS,9R,10S,12R, 12aR)-3,6,9-trimethyldeca-hydro-12H-3,12-epoxy[1,2]dioxepino[4,3-i]isochromen-10-yl)oxy)methyl) benzoic acid] |
| 333 | > 20000 | C[C@H]1[C@@H](OCc2ccc(C(=O)O)o2)O[C@@H]2O[C@@]3(C)CC[C@H]4[C@H](C)CC[C@@H]1[C@@]24OO3 [Compound 32, 5-((((3R,5aS,6R, 8aS,9R,10S,12R, 12aR)-3,6,9-trimethyldeca-hydro-12H-3,12-epoxy[1,2]dioxepino[4,3-i]isochromen-10-yl)oxy)methyl) furan-2-carboxylic acid] |
| 343 | > 20000 | C[C@H]1[C@@H](OCc2ccc(C(=O)O)c(Cl)c2)O[C@@H]2O[C@@]3(C)CC[C@H]4[C@H](C)CC[C@@H]1[C@@]24OO3 [Compound 33, 2-chloro-4-((((3R,5aS,6R, 8aS,9R,10S,12R, 12aR)-3,6,9-trimethyldeca-hydro-12H-3,12-epoxy[1,2]dioxepino[4,3-i]isochromen-10-yl)oxy)methyl) benzoic acid] |
| 480 | > 20000 | C[C@H]1[C@@H](OCc2cccc(CC(=O)O)c2)O[C@@H]2O[C@@]3(C)CC[C@H]4[C@H](C)CC[C@@H]1[C@@]24OO3 [Compound 34, 2-(3-((((3R,5aS,6R, 8aS,9R,10S,12R, 12aR)-3,6,9-trimethyldeca-hydro-12H-3,12-epoxy[1,2]dioxepino[4,3-i]isochromen-10-yl)oxy)methyl)phenyl)acetic acid] |
| 481 | > 20000 | COc1cc(CO[C@H]2O[C@@H]3O[C@@]4(C)CC[C@H]5[C@H](C)CC[C@@H]([C@H]2C)[C@@]35OO4)ccc1C(=O)O [Compound 35, 2-methoxy-4-((((3R,5aS,6R, 8aS,9R,10S,12R, 12aR)-3,6,9-trimethyldeca-hydro-12H-3,12-epoxy[1,2]dioxepino[4,3-i]isochromen-10-yl)oxy)methyl) benzoic acid] |
| 526 | > 20000 | C[C@H]1[C@@H](OCCc2ccc(C(=O)O)cc2)O[C@@H]2O[C@@]3(C)CC[C@H]4[C@H](C)CC[C@@H]1[C@@]24OO3 [Compound 36, 4-(2-(((3R,5aS,6R,8aS, 9R,10S,12R, 12aR)-3,6,9-trimethyldeca-hydro-12H-3,12-epoxy[1,2]dioxepino[4,3-i]isochromen-10-yl)oxy)ethyl) benzoic acid] |
| 555 | 590 | Cc1cc(CN[C@@H]2O[C@@H]3O[C@@]4(C)CC[C@H]5[C@H](C)CC[C@@H]([C@H]2C)[C@@]35OO4)cc(C)n1 [Compound 37, (3R,5aS,6R,8aS, 9R,10R,12R, 12aR)-N-((2,6-dimethylpyridin-4-yl)methyl)-3,6,9-trimethyldeca-hydro-12H-3,12-epoxy[1,2] dioxepino[4,3-i] isochromen-10-amine] |
| 616 | 13100 | C[C@H]1[C@@H](OCc2ccc(-c3nn[nH]n3)cc2)O[C@@H]2O[C@@]3(C)CC[C@H]4[C@H](C)CC[C@@H]1[C@@]24OO3 [Compound 38, 5-(4-((((3R,5aS,6R,8aS, 9R,10S,12R, 12aR)-3,6,9-trimethyldeca-hydro-12H-3,12-epoxy[1,2]dioxepino[4,3-i]isochromen-10-yl)oxy)methyl)phenyl)-2H-tetrazole] |
| 631 | > 20000 | C[C@H]1[C@H](OCc2ccc(C(=O)O)c(F)c2)O[C@@H]2O[C@@]3(C)CC[C@H]4[C@H](C)CC[C@@H]1[C@@]24OO3 [Compound 39, 2-fluoro-4-((((3R,5aS,6R,8aS, 9R,10R,12R, 12aR)-3,6,9-trimethyldeca-hydro-12H-3,12-epoxy[1,2]dioxepino[4,3-i]isochromen-10-yl)oxy)methyl) benzoic acid] |
| 680 | > 20000 | C[C@H]1[C@H](OC[C@H]2CC[C@H](C(=O)O)CC2)O[C@@H]2O[C@@]3(C)CC[C@H]4[C@H](C)CC[C@@H]1[C@@]24OO3 [Compound 40, (1R,4r)-4-((((3R,5aS,6R,8aS, 9R,10R,12R, 12aR)-3,6,9-trimethyldeca-hydro-12H-3,12-epoxy[1,2]dioxepino[4,3-i]isochromen-10-yl)oxy)methyl) cyclohexane-1-carboxylic acid] |
| 735 | > 20000 | Cc1cc(CO[C@H]2O[C@@H]3O[C@@]4(C)CC[C@H]5[C@H](C)CC[C@@H]([C@H]2C)[C@@]35OO4)ccc1C(=O)O [Compound 41, 2-methyl-4-((((3R,5aS,6R, 8aS,9R,10S,12R, 12aR)-3,6,9-trimethyldeca-hydro-12H-3,12-epoxy[1,2]dioxepino[4,3-i]isochromen-10-yl)oxy)methyl) benzoic acid] |
| 782 | > 20000 | C[C@H]1[C@H](OCC2CCC(C(=O)O)CC2)O[C@@H]2O[C@@]3(C)CC[C@H]4[C@H](C)CC[C@@H]1[C@@]24OO3 (stereo partly drawn) [Compound 42, (1S,4s)-4-((((3R,5aS,6R, 8aS,9R,10R,12R, 12aR)-3,6,9-trimethyldeca-hydro-12H-3,12-epoxy[1,2]dioxepino[4,3-i]isochromen-10-yl)oxy)methyl) cyclohexane-1-carboxylic acid] |
| 892 | > 20000 | C[C@H]1[C@@H](OC[C@H]2CC[C@H](C(=O)O)CC2)O[C@@H]2O[C@@]3(C)CC[C@H]4[C@H](C)CC[C@@H]1[C@@]24OO3 [Compound 43, (1S,4r)-4-((((3R,5aS,6R, 8aS,9R,10S,12R, 12aR)-3,6,9-trimethyldeca-hydro-12H-3,12-epoxy[1,2]dioxepino[4,3-i]isochromen-10-yl)oxy)methyl) cyclohexane-1-carboxylic acid] |
| 1010 | > 20000 | Cc1cc(C(=O)O)ccc1CO[C@@H]1O[C@@H]2O[C@@]3(C)CC[C@H]4[C@H](C)CC[C@@H]([C@H]1C)[C@@]24OO3 [Compound 44, 3-methyl-4-((((3R,5aS,6R,8aS, 9R,10R,12R, 12aR)-3,6,9-trimethyldeca-hydro-12H-3,12-epoxy[1,2]dioxepino[4,3-i]isochromen-10-yl)oxy)methyl) benzoic acid] |
| 1460 | 4380 | C[C@H]1[C@H](NCc2cnn(C)c2)O[C@@H]2O[C@@]3(C)CC[C@H]4[C@H](C)CC[C@@H]1[C@@]24OO3 [Compound 46, (3R,5aS,6R,8aS, 9R,10R,12R, 12aR)-3,6,9-trimethyl-N-((1-methyl-1H-pyrazol-4-yl)methyl)decahydro-12H-3,12-epoxy[1,2] dioxepino[4,3-i] isochromen-10-amine] |
| 1710 | 4050 | CCN(CC)Cc1ccc(C(C)O[C@@H]2O[C@@H]3O[C@@]4(C)CC[C@H]5[C@H](C)CC[C@@H]([C@H]2C)[C@@]35OO4)cc1O (stereo partly drawn) [Compound 47, 2-((diethylamino)methyl)-5-(1-(((3R,5aS,6R,8aS, 9R,10R,12R, 12aR)-3,6,9-trimethyldeca-hydro-12H-3,12-epoxy[1,2]dioxepino[4,3-i]isochromen-10-yl)oxy)ethyl) phenol] |
| 2100 | ≥ 20000 | C[C@H]1[C@H](OCc2ccc(S(N)(=O)=O)cc2)O[C@@H]2O[C@@]3(C)CC[C@H]4[C@H](C)CC[C@@H]1[C@@]24OO3 [Compound 49, 4-((((3R,5aS,6R,8aS, 9R,10R,12R, 12aR)-3,6,9-trimethyldeca-hydro-12H-3,12-epoxy[1,2]dioxepino[4,3-i]isochromen-10-yl)oxy)methyl) benzene-sulfonamide] |
